Data reported in patent publication US20220152004A1, “HETEROCYCLYL(PHENYL)METHANOL COMPOUNDS USEFUL IN THE TREATMENT OF HYPERGLYCAEMIA” (ATROGI AB, priority 2019, published 2022).
Where a name gives a salt, the structure may show the parent alone.

Tests used:
L6-myotubes [1] = experiment: Glucose uptake (3H-2-deoxy-glucose) in differentiated L6-myotubes; type: cell-based; details: agonist final concentration 1×10^−5; for Biological example 3: Table 2, glucose uptake assay of Biological Example 1; for Emax at 10 µM: differentiated L6-myotubes, Table 1, read-out: Biological example 1 (glucose uptake, activity compared to that of isoproterenol)
Procedure: (§1) L6-myoblasts were grown in Dulbecco's Modified Eagle's Medium (DMEM) containing 4.5 g/l glucose supplemented with 10% fetal bovine serum, 2 mM L-Glutamine, 50 U/ml penicillin, 50 μg/ml streptomycin and 10 mM HEPES. Cells were plated at 1×10^5 cells per ml in 24-well plates. After reaching 90% confluence the cells were grown in medium containing 2% FBS for 7 days where upon cells differentiated into myotubes.
Differentiated L6-myotubes were serum-starved overnight in medium containing 0,5% fatty-acid free BSA and stimulated with agonist, final concentration 1×10^−5. After 1 h 40 min cells were washed with warm, glucose free medium or PBS and another portion of agonist was added to glucose free medium. After 20 min the cells were exposed to 50 nM ^3H-2-deoxy-glucose for another 10 min before washed in ice cold glucose free medium or PBS and lysed in 0.2 M NaOH for 1 h in 60° C.

L6-myotubes [2] = experiment: Measurement of intracellular cAMP levels in differentiated L6-myotubes; type: cell-based; details: for Biological example 4: Table 2, cAMP assay of Biological Example 2, agonist final concentration 1×10^−5; for Emax at 10 µM: 0.25 h, agonist final concentration 1×10^−5, 15 min, differentiated cells, Table 1, read-out: Biological example 2 (intracellular cAMP levels, activity compared to that of isoproterenol)
Procedure: as §1
Differentiated cells were serum-starved overnight and stimulated with agonist, final concentration 1×10^−5, for 15 min in stimulation buffer (HBSS supplemented with 1% BSA, 5 mM HEPES and 1 mM IBMX, pH 7,4) The medium was then aspirated and to end the reaction 100 μL of 95% EtOH was added to each well of a 24-well plate and cells were kept in −20° C. over night. The EtOH was let to evaporate and 500 μL of lysis buffer (1% BSA, 5 mM HEPES and 0,3% Tween-20, pH 7,4) was added to each well before put in −80° C. for 30 min and then kept in −20° C. Intracellular cAMP levels were detected using an alpha screen cAMP kit (6760635D from Perkin Elmer). The activity for each compound is compared to that of isoproterenol.

| Compound | Biological example 3 (L6-myotubes [1]) | Biological example 4 (L6-myotubes [2]) | Emax at 10 µM (L6-myotubes [1]) [%] | Emax at 10 µM (L6-myotubes [2]) [%] |
| --- | --- | --- | --- | --- |
| CC1(C)C[C@@H]([C@H](O)c2cccc(F)c2)N1.Cl [Example 39, (R)-((S)-4,4-dimethylazetidin-2-yl)(3-fluorophenyl)methanol hydrochloride] | − (less than 25%) | − (less than 25%) |  |  |
| CC1(C)CC[C@H]([C@@H](O)c2ccc(F)cc2)N1 [Example 22, (S)-((R)-5,5-Dimethylpyrrolidin-2-yl)(4-fluorophenyl)methanol hydrochloride] |  |  | < 25 | < 25 |
| CC1(C)CCC[C@H]([C@H](O)c2cccc(F)c2)N1 [Example 1, (R)-((R)-6,6-Dimethylpiperidin-2-yl)(3-fluorophenyl)methanol] |  |  | 50 to 75 | < 25 |
| CC1(C)CC[C@@H]([C@H](O)c2cccc(F)c2)N1 [Example 13, (R)-((S)-5,5-Dimethylpyrrolidin-2-yl)(3-fluorophenyl)methanol hydrochloride] |  |  | < 25 | < 25 |
| CC1(C)CCC[C@H]([C@@H](O)c2ccccc2F)N1 [Example 10, (S)-((R)-6,6-Dimethylpiperidin-2-yl)(2-fluorophenyl)methanol hydrochloride] |  |  | > 75 | 25 to 50 |
| CC1(C)CC[C@H]([C@H](O)c2ccccc2F)N1 [Example 19, (R)-((R)-5,5-Dimethylpyrrolidin-2-yl)(2-fluorophenyl)methanol hydrochloride] |  |  | > 75 | < 25 |
| CC1(C)C[C@@H]([C@H](O)c2cccc(Cl)c2)N1.O=C(O)/C=C\C(=O)O [Example 47, (R)-(3-chlorophenyl)((S)-4,4-dimethylazetidin-2-yl)methanol maleate] | ++ (between 75 and 50%) | − (less than 25%) |  |  |
| CC1(C)CC[C@H]([C@H](O)c2cccc(Cl)c2)N1 [Example 25, (R)-(3-Chlorophenyl)((R)-5,5-dimethylpyrrolidin-2-yl)methanol hydrochloride] |  |  | > 75 | < 25 |
| CC1(C)CC[C@H]([C@H](O)c2ccc(F)cc2)N1 [Example 21, (R)-((R)-5,5-Dimethylpyrrolidin-2-yl)(4-fluorophenyl)methanol hydrochloride] |  |  | 50 to 75 | < 25 |
| CC1(C)CC[C@H]([C@H](O)c2cccc(N)c2F)N1.Cl [Example 49, (R)-(3-amino-2-fluorophenyl)((R)-5,5-dimethylpyrrolidin-2-yl)methanol hydrochloride] | +++ (more than 75% of that of isoproterenol) | − (less than 25%) |  |  |
| CC1(C)C[C@H]([C@H](O)c2cccc(F)c2)N1.Cl [Example 33, (R)-((R)-4,4-dimethylazetidin-2-yl)(3-fluorophenyl)methanol hydrochloride] | +++ (more than 75% of that of isoproterenol) | ++ (between 75 and 50%) |  |  |
| CC1(C)CC[C@@H]([C@@H](O)c2cccc(O)c2)N1 [Example 18] |  |  | < 25 | < 25 |
| CC1(C)C[C@H]([C@H](O)c2ccccc2F)N1.Cl [Example 35, (R)-((R)-4,4-dimethylazetidin-2-yl)(2-fluorophenyl)methanol hydrochloride] | +++ (more than 75% of that of isoproterenol) | + (between 50 and 25%) |  |  |
| CC1(C)CC[C@H]([C@@H](O)c2ccccc2Cl)N1 [Example 24, (S)-(2-Chlorophenyl)((R)-5,5-dimethylpyrrolidin-2-yl)methanol hydrochloride] |  |  | < 25 | < 25 |
| CC1(C)CCC[C@H]([C@H](O)c2ccccc2F)N1 [Example 9, (R)-((R)-6,6-Dimethylpiperidin-2-yl)(2-fluorophenyl)methanol hydrochloride] |  |  | 50 to 75 | < 25 |
